Laboratory results as given in patent US20160108039A1, “TRIAZOLOPYRIDINES AS THROMBIN INHIBITORS FOR THE TREATMENT OF THROMBOEMBOLIC DISEASES” (BAYER PHARMA AKTIENGESELLSCHAFT, priority 2013, published 2016).

Assays:
thrombin [1] = target: T1, thrombin (Homo sapiens, UniProt P00734); experiment: Measurement of the thrombin inhibition in buffer; assay type: biochemical; conditions: human thrombin 0.06 nmol/l in Tris buffer pH 7.4, 22° C., substrate Boc-Asp(OBzl)-Pro-Arg-AMC; in some cases means of individual determinations
Protocol: To determine the thrombin inhibition of the substances listed above, a biochemical test system is constructed in which the conversion of a thrombin substrate is used for determining the enzymatic activity of human thrombin. Here, thrombin cleaves aminomethylcoumarin, which is measured fluorescently, from the peptic substrate. The determinations are carried out in microtitre plates.
Substances to be tested are dissolved in various concentrations in dimethyl sulphoxide and incubated for 15 min with human thrombin (0.06 nmol/l dissolved in 50 mmol/l of Tris buffer [C,C,C-tris(hydroxymethyl)aminomethane], 100 mmol/l of sodium chloride, 0.1% BSA [bovine serum albumin], pH 7.4) at 22° C. The substrate (5 μmol/l Boc-Asp(OBzl)-Pro-Arg-AMC from Bachem) is then added. After 30 min of incubation, the sample is excited at a wavelength of 360 nm and the emission is measured at 460 nm. The measured emissions of the test mixtures with test substance are compared to the control mixtures without test substance (only dimethyl sulphoxide instead of test substance in dimethyl sulphoxide) and IC50 values are calculated from the concentration/activity relationships. Representative activity data from this test are given in Table 1 below (in some cases as means of individual determinations): […]

thrombin [2] = target: T1, thrombin; experiment: Thrombin-inhibitory activity in plasma samples (ecarin-activated); assay type: biochemical; conditions: citrate plasma, ecarin activation, fluorogenic thrombin substrate; read at about 70% of maximum signal (about 12 min); in some cases means
Protocol: To determine the inhibition of thrombin in plasma samples, plasma prothrombinase is activated by ecarin. Thrombin activity and/or its inhibition by potential inhibitors is/are then measured fluorescently by addition of a substrate.
The substances to be tested are dissolved in various concentrations in dimethyl sulphoxide and diluted with water. In white 96-well flat-bottomed plates, 20 μl of substance dilution are mixed with 20 μl of ecarin solution (ecarin reagent, from Sigma E-0504, final concentration 20 mU per reaction) in Ca buffer (200 mM Hepes+560 mM sodium chloride+10 mM calcium chloride+0.4% PEG) or with 20 μl of Ca buffer (as unstimulated control). Furthermore, 20 μl of fluorogenic thrombin substrate (from Bachem 1-1120, final concentration 50 μmol/l) and 20 μl of citrate plasma (from Octapharma) are added, and the mixture is homogenized well. The plate is measured in a SpectraFluorplus Reader using a 360 nm excitation filter and a 465 nm emission filter every minute over 20 minutes. […] Representative activity data from this test are given in Table 2 below (in some cases as means of individual determinations): […]

Compound	IC50 (thrombin [1])	IC50 (thrombin [2])
COc1cc(C(=O)N2CC(C)(C)OCC2(C)CO)cn2nc(NCc3cccc(Cl)c3)nc12 (racemic) [Example 8, {2-[(3-Chlorobenzyl)amino]-8-methoxy[1,2,4]triazolo[1,5-a]pyridin-6-yl}[5-(hydroxymethyl)-2,2,5-trimethylmorpholin-4-yl]methanone]	20 nM	29 nM
COCC1COC(C)(C)CN1C(=O)c1cc(OC)c2nc(NCc3cccc(Cl)c3)nn2c1 (racemic) [Example 11, {2-[(3-Chlorobenzyl)amino]-8-methoxy[1,2,4]triazolo[1,5-a]pyridin-6-yl}[5-(methoxymethyl)-2,2-dimethylmorpholin-4-yl]methanone]	63 nM	64 nM
COc1cc(C(=O)N2CC(C)(C)OCC2CF)cn2nc(NCc3cccc(Cl)c3)nc12 (racemic) [Example 12, {2-[(3-Chlorobenzyl)amino]-8-methoxy[1,2,4]triazolo[1,5-a]pyridin-6-yl}[5-(fluoromethyl)-2,2-dimethylmorpholin-4-yl]methanone]	35 nM	56 nM
COc1cc(C(=O)N2CC(C)OCC2CCO)cn2nc(NCc3cccc(Cl)c3)nc12 (racemic) [Example 15, {2-[(3-Chlorobenzyl)amino]-8-methoxy[1,2,4]triazolo[1,5-a]pyridin-6-yl}[5-(2-hydroxyethyl)-2-methylmorpholin-4-yl]methanone]	53 nM	75 nM
COc1cc(C(=O)N2CC(C)OCC2(C)C)cn2nc(NCc3cccc(Cl)c3)nc12 (racemic) [Example 26]	88 nM	
COc1cc(C(=O)N2CC(C)(CCO)OCC2(C)C)cn2nc(NCc3cccc(Cl)c3)nc12 (racemic) [Example 31, {2-[(3-Chlorobenzyl)amino]-8-methoxy[1,2,4]triazolo[1,5-a]pyridin-6-yl}[2-(2-hydroxyethyl)-2,5,5-trimethylmorpholin-4-yl]methanone]	11 nM	15 nM
COc1cc(C(=O)N2CC(C)OCC2CC(C)(C)O)cn2nc(NCc3cccc(Cl)c3)nc12 (racemic) [Example 42, {2-[(3-Chlorobenzyl)amino]-8-methoxy[1,2,4]triazolo[1,5-a]pyridin-6-yl}[5-(2-hydroxy-2-methylpropyl)-2-methylmorpholin-4-yl]methanone]	37 nM	54 nM
COc1cc(C(=O)N2CC3CCN3C(=O)C2C)cn2nc(N[C@H](C)c3cccc(Cl)c3)nc12 (single isomer, unassigned) [Example 1]	34 nM	33 nM
COc1cc(C(=O)N2CC(C)OC[C@H]2C)cn2nc(NC(CF)c3cccc(Cl)c3)nc12 (single isomer, unassigned) [Example 5]		87 nM
COc1cc(C(=O)N2CC(C)(C)OCC2CF)cn2nc(NCc3cccc(Cl)c3)nc12 (single isomer, unassigned) [Example 13, {2-[(3-Chlorobenzyl)amino]-8-methoxy[1,2,4]triazolo[1,5-a]pyridin-6-yl}[5-(fluoromethyl)-2,2-dimethylmorpholin-4-yl]methanone]	420 nM	
COc1cc(C(=O)N2CC(C)OCC2(C)C)cn2nc(NCc3cccc(Cl)c3)nc12 (single isomer, unassigned) [Example 28]	180 nM	
COc1cc(C(=O)N2CC(C)(CCO)OCC2(C)C)cn2nc(NCc3cccc(Cl)c3)nc12 (single isomer, unassigned) [Example 32, {2-[(3-Chlorobenzyl)amino]-8-methoxy[1,2,4]triazolo[1,5-a]pyridin-6-yl}[2-(2-hydroxyethyl)-2,5,5-trimethylmorpholin-4-yl]methanone]	230 nM	
COc1cc(C(=O)N2CC(C)(CC(C)O)OCC2(C)C)cn2nc(NCc3cccc(Cl)c3)nc12 (single isomer, unassigned) [Example 38, {2-[(3-Chlorobenzyl)amino]-8-methoxy[1,2,4]triazolo[1,5-a]pyridin-6-yl}[2-(2-hydroxypropyl)-2,5,5-trimethylmorpholin-4-yl]methanone]	2800 nM	
COc1cc(C(=O)N2CC(C)OCC2CC(C)(C)O)cn2nc(NCc3cccc(Cl)c3)nc12 (single isomer, unassigned) [Example 43, {2-[(3-Chlorobenzyl)amino]-8-methoxy[1,2,4]triazolo[1,5-a]pyridin-6-yl}[5-(2-hydroxy-2-methylpropyl)-2-methylmorpholin-4-yl]methanone]	81 nM	
COc1cc(C(=O)N2CC(C)OCC2CC(C)(C)O)cn2nc(NCc3cccc(Cl)c3)nc12 (single isomer, unassigned) [Example 44, {2-[(3-Chlorobenzyl)amino]-8-methoxy[1,2,4]triazolo[1,5-a]pyridin-6-yl}[5-(2-hydroxy-2-methylpropyl)-2-methylmorpholin-4-yl]methanone]	29 nM	
COc1cc(C(=O)N2CC(C)(C)OCC2CC(C)O)cn2nc(NCc3cccc(Cl)c3)nc12 (single isomer, unassigned) [Example 46, {2-[(3-Chlorobenzyl)amino]-8-methoxy[1,2,4]triazolo[1,5-a]pyridin-6-yl}[5-(2-hydroxypropyl)-2,2-dimethylmorpholin-4-yl]methanone]	190 nM	
COc1cc(C(=O)N2CC(C)(C)OCC2CC(C)O)cn2nc(NCc3cccc(Cl)c3)nc12 (single isomer, unassigned) [Example 47, {2-[(3-Chlorobenzyl)amino]-8-methoxy[1,2,4]triazolo[1,5-a]pyridin-6-yl}[5-(2-hydroxypropyl)-2,2-dimethylmorpholin-4-yl]methanone]	180 nM	
COc1cc(C(=O)N2CC(C)(C)OCC2CC(C)O)cn2nc(NCc3cccc(Cl)c3)nc12 (single isomer, unassigned) [Example 48, {2-[(3-Chlorobenzyl)amino]-8-methoxy[1,2,4]triazolo[1,5-a]pyridin-6-yl}[5-(2-hydroxypropyl)-2,2-dimethylmorpholin-4-yl]methanone]	39 nM	
COc1cc(C(=O)N2CC(C)(CCO)OCC2CF)cn2nc(NCc3cccc(Cl)c3)nc12 (single isomer, unassigned) [Example 51, {2-[(3-Chlorobenzyl)amino]-8-methoxy[1,2,4]triazolo[1,5-a]pyridin-6-yl}[5-(fluoromethyl)-2-(2-hydroxyethyl)-2-methylmorpholin-4-yl]methanone]	3500 nM	
COc1cc(C(=O)N2CC(C)(CCO)OCC2CF)cn2nc(NCc3cccc(Cl)c3)nc12 (single isomer, unassigned) [Example 52, {2-[(3-Chlorobenzyl)amino]-8-methoxy[1,2,4]triazolo[1,5-a]pyridin-6-yl}[5-(fluoromethyl)-2-(2-hydroxyethyl)-2-methylmorpholin-4-yl]methanone]	1200 nM	
COc1cc(C(=O)N2CC(C)(CC(C)O)OCC2CF)cn2nc(NCc3cccc(Cl)c3)nc12 (single isomer, unassigned) [Example 57, {2-[(3-Chlorobenzyl)amino]-8-methoxy[1,2,4]triazolo[1,5-a]pyridin-6-yl}[5-(fluoromethyl)-2-(2-hydroxypropyl)-2-methylmorpholin-4-yl]methanone]	1000 nM	
[2H]C([2H])(C)O[C@@H]1CC(CO)N(C(=O)c2cc(OC)c3nc(NCc4cccc(Cl)c4)nn3c2)C1 (stereo partly drawn) [Example 73, {2-[(3-Chlorobenzyl)amino]-8-methoxy[1,2,4]triazolo[1,5-a]pyridin-6-yl}[(4R)-4-[(1,1-^2H2)ethyloxy]-2-(hydroxymethyl)pyrrolidin-1-yl]methanone]		39 nM
